Assay results as given in the NIST ThermoML archive (doi:10.1016/j.jct.2015.08.023).
Several values for one entry are separate records, joined by “and”; a condition that tells them apart may be missing. Equal entries are not always repeated. Numbers after ± are expanded uncertainties.

Conditions: Liquid, Closed cell (Static) method

CN(C)CCCN [N,N-dimethyl-1,3-propanediamine]
Conditions	vapor or sublimation pressure
273.04 K	0.183 ± 0.011 kPa
283.06 K	0.381 ± 0.023 kPa
283.15 K	0.3844 ± 0.024 kPa
293.13 K	0.749 ± 0.016 kPa
293.15 K	0.7536 ± 0.02 kPa
303.15 K	1.397 ± 0.02 kPa
303.16 K	1.396 ± 0.013 kPa
313.15 K	2.464 ± 0.027 kPa
313.21 K	2.478 ± 0.019 kPa
323.15 K	4.162 ± 0.038 kPa
323.27 K	4.186 ± 0.03 kPa
333.15 K	6.763 ± 0.056 kPa
333.32 K	6.828 ± 0.047 kPa
343.15 K	10.61 ± 0.083 kPa
343.37 K	10.73 ± 0.071 kPa and 10.72 ± 0.071 kPa
353.15 K	16.15 ± 0.12 kPa
353.41 K	16.31 ± 0.11 kPa
363.15 K	23.9 ± 0.17 kPa
363.44 K	24.1 ± 0.15 kPa

CNCCCN [N-methyl-1,3-diaminopropane]
Conditions	vapor or sublimation pressure
273 K	0.089 ± 0.006 kPa
273.15 K	0.089 ± 0.0062 kPa
283.15 K	0.204 ± 0.013 kPa
283.37 K	0.205 ± 0.013 kPa
293.15 K	0.4319 ± 0.027 kPa
293.47 K	0.431 ± 0.026 kPa
303.11 K	0.861 ± 0.019 kPa
303.15 K	0.8539 ± 0.022 kPa
313.15 K	1.591 ± 0.022 kPa
313.18 K	1.607 ± 0.014 kPa
323.15 K	2.814 ± 0.029 kPa
323.26 K	2.83 ± 0.021 kPa and 2.828 ± 0.021 kPa
333.15 K	4.755 ± 0.042 kPa
333.23 K	4.764 ± 0.034 kPa
333.25 K	4.764 ± 0.034 kPa
343.15 K	7.716 ± 0.062 kPa
343.26 K	7.745 ± 0.053 kPa
343.28 K	7.742 ± 0.053 kPa
343.3 K	7.74 ± 0.053 kPa
352.54 K	11.85 ± 0.078 kPa
353.15 K	12.08 ± 0.093 kPa
353.24 K	12.14 ± 0.079 kPa
362.82 K	18.1 ± 0.12 kPa
362.84 K	18.11 ± 0.12 kPa
363.15 K	18.31 ± 0.14 kPa
372.74 K	26.61 ± 0.17 kPa
372.76 K	26.61 ± 0.17 kPa
382.84 K	38.34 ± 0.25 kPa
382.87 K	38.35 ± 0.25 kPa
392.92 K	53.96 ± 0.35 kPa
392.95 K	53.96 ± 0.35 kPa
402.59 K	73.4 ± 0.47 kPa
402.61 K	73.41 ± 0.47 kPa
422.46 K	129.8 ± 0.82 kPa and 129.79 ± 0.82 kPa
422.51 K	129.84 ± 0.82 kPa
432.4 K	169.97 ± 1.1 kPa and 170.02 ± 1.1 kPa

CCN(CC)CCCN [N,N-diethylpropane-1,3-diamine]
Conditions	vapor or sublimation pressure
263.16 K	0.014 ± 0.001 kPa
273.05 K	0.034 ± 0.002 kPa
273.15 K	0.0338 ± 0.0025 kPa
283.15 K	0.0768 ± 0.0054 kPa
283.27 K	0.077 ± 0.005 kPa
293.15 K	0.1631 ± 0.011 kPa
293.22 K	0.163 ± 0.01 kPa
303.14 K	0.326 ± 0.02 kPa
303.15 K	0.3257 ± 0.021 kPa
303.16 K	0.325 ± 0.02 kPa
313.15 K	0.6164 ± 0.016 kPa
313.16 K	0.616 ± 0.014 kPa
313.18 K	0.616 ± 0.014 kPa
323.15 K	1.112 ± 0.029 kPa
323.16 K	1.114 ± 0.024 kPa and 1.112 ± 0.024 kPa
333.15 K	1.922 ± 0.023 kPa
333.18 K	1.94 ± 0.016 kPa
343.15 K	3.199 ± 0.031 kPa
343.21 K	3.234 ± 0.024 kPa
353.15 K	5.143 ± 0.044 kPa
353.19 K	5.161 ± 0.036 kPa and 5.162 ± 0.036 kPa
363.15 K	8.017 ± 0.064 kPa
363.25 K	7.965 ± 0.053 kPa
